Among the data in article doi:10.1101/2021.11.16.468530v1 (biorxiv, 2021) are IC50 values, retold here.

This assay concerns the target T1, human topoisomerase I (TOP1) (Homo sapiens, UniProt P11387).
T1 sequence (P11387 2-765): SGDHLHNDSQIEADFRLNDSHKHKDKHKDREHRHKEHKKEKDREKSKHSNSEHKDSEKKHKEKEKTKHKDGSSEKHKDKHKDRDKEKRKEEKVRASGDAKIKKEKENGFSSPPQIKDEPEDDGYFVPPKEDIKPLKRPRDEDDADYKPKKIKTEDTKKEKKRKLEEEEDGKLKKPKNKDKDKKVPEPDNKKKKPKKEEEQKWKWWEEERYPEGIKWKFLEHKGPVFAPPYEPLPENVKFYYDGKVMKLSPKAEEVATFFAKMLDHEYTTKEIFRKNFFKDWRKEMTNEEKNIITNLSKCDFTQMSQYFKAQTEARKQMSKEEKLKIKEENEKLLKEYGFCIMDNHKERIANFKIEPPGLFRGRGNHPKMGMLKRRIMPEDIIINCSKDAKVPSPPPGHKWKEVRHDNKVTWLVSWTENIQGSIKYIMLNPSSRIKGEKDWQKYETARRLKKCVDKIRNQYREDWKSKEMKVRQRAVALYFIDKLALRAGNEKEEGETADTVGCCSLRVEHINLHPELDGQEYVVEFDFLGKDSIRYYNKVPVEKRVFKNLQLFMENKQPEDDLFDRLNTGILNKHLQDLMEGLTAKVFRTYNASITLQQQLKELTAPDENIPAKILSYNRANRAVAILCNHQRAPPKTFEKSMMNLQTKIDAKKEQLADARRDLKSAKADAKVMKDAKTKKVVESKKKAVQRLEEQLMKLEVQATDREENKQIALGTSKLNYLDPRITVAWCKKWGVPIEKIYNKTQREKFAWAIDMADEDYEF
The assay is described as follows: supercoiled plasmid DNA relaxation, agarose gel. It counts as biochemical.

In general, IC50 refers to the concentration that gives 50% inhibition. As to `O=c1c(O)c(-c2cc(O)c(O)c(O)c2)oc2cc(O)cc(O)c12` [myricetin], the IC50 was about 10 µM.

In turn, `O=C(Nc1ccc(Sc2ccc(N=Nc3c(O)c(S(=O)(=O)O)cc4cc(S(=O)(=O)O)ccc34)cc2)cc1)c1ccc(N=Nc2c(O)c(S(=O)(=O)O)cc3cc(S(=O)(=O)O)ccc23)cc1` [NSC65860] came in with an IC50 of 0.89 µM.
